In patent US8541461B2 (Astex Therapeutics Limited, priority 2005, dated 2013):
Read-outs that look alike come from different tables or passages of the source.

Experiments:
PKA catalytic domain = biological target: T1, PKA catalytic domain (Homo sapiens, UniProt P17612); experiment: Measurement of PKA kinase inhibitory activity (IC50); assay type: biochemical
T1 construct: PKA catalytic domain from Upstate Biotechnology (#14-440); purchased Upstate Biotechnology 14-440
Method: A final concentration of 1 nM enzyme is used in a buffer that includes 20 mM MOPS pH 7.2, 40 μM ATP/γ^33P-ATP and 5 μM substrate. […] The reaction is allowed to proceed for 20 minutes before addition of excess orthophosphoric acid to quench activity. Unincorporated γ^33P-ATP is then separated from phosphorylated proteins on a Millipore MAPH filter plate. The plates are washed, scintillant is added and the plates are then subjected to counting on a Packard Topcount.

[1] = biological target: T2, PKB-PIF fusion protein (protein kinase B) (Homo sapiens, UniProt P31751); experiment: Measurement of PKB kinase inhibitory activity (IC50); assay type: biochemical
T2 construct: PIF (fusion partner); made in house
Method: The reaction is allowed to proceed for 20 minutes before addition of excess orthophosphoric acid to quench activity. The reaction mixture is transferred to a phosphocellulose filter plate where the peptide binds and the unused ATP is washed away. After washing, scintillant is added and the incorporated activity measured by scintillation counting.

[2] = doses 10 times more than were needed for antitumour activity; cited from earlier work
[3] = antitumour agent; cited from earlier work
[4] = system: Acute Promyelocytic Leukemia (APL) patients; conditions: cited from earlier work
[5] = system: P-glycoprotein-overexpressing subline of leukemic cell line CCRF-CEM; conditions: read-out: IC50 against P-glycoprotein-overexpressing subline; cited from earlier work
PKC = conditions: cited from earlier work
OVCAR-3 tumour cells = conditions: concentrations of 50 and 100 microM; cited from earlier work
PKG = conditions: cited from earlier work
[6] = clinical studies; cited from earlier work
[7] = 1 nM enzyme, 40 μM ATP/γ33P-ATP, 5 μM substrate, read-out: PKA IC50
[8] = 0.6 nM enzyme, 30 μM ATP/γ33P-ATP, 25 μM AKTide-2T substrate, read-out: PKB IC50

T2 sequence (P31751 with tags, fused parts or gaps limits assumed): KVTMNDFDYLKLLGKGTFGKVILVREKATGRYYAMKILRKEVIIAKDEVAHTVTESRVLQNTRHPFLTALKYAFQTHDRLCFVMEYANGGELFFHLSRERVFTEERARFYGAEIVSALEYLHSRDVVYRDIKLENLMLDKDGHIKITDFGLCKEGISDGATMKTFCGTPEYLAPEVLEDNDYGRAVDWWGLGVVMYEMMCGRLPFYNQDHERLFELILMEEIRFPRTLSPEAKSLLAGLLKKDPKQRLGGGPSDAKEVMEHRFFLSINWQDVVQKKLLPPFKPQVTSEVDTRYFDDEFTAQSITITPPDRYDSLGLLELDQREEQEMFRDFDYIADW

Row | IC50 (PKA catalytic domain; [7]) | IC50 [1, 8] | Molecule | other results
1 | < 1000 nM | < 1000 nM | CNCC(c1ccc(-c2cn[nH]c2)cc1)c1cccc(Cl)c1 (stereo not drawn) [Example 66, {2-(3-Chloro-phenyl)-2-[4-(1H-pyrazol-4-yl)-phenyl]-ethyl}-methyl-amine] | –
2 | < 1000 nM | < 1000 nM | Oc1ccc(C2(c3ccc(-c4cn[nH]c4)cc3)CCNCC2)cc1 [Example 63, 4-{4-[4-(1H-Pyrazol-4-yl)-phenyl]-piperidin-4-yl}-phenol] | –
3 | < 1000 nM | < 1000 nM | CNCC(c1ccc(Oc2cnccn2)cc1)c1ccc(-c2cn[nH]c2)cc1 (stereo not drawn) [Example 47, Methyl-{2-[4-(pyrazin-2-yloxy)-phenyl]-2-[4-(1H-pyrazol-4-yl)-phenyl]-ethyl}-amine] | –
4 | < 1000 nM | < 5000 nM | COCCOc1ccc(C2(c3ccc(-c4cn[nH]c4)cc3)CCNCC2)cc1 [Example 67, 4-[4-(2-Methoxy-ethoxy)-phenyl]-4-[4-(1H-pyrazol-4-yl)-phenyl]-piperidine] | –
5 | < 15000 nM | < 5000 nM | NCC(Cc1ccccc1)c1ccc(-c2cn[nH]c2)cc1 (stereo not drawn) [Example 7, 3-Phenyl-2-[4-(1H-pyrazol-4-yl)-phenyl]-propylamine] | –
6 | < 1000 nM | < 1000 nM | COc1ccc(C2(c3ccc(-c4cn[nH]c4)cc3)CCNCC2)cc1Cl [Example 86, 4-(3-Chloro-4-methoxy-phenyl)-4-[4-(1H-pyrazol-4-yl)-phenyl]-piperidine] | –
7 | < 1000 nM | < 1000 nM | NCCC(c1ccc(-c2cn[nH]c2)cc1)c1cccc(Cl)c1 (stereo not drawn) [Example 90, 3-(3-Chloro-phenyl)-3-[4-(1H-pyrazol-4-yl)-phenyl]-propylamine] | –
8 | < 1000 nM | < 1000 nM | Cc1n[nH]cc1-c1ccc(C2(c3ccc(Cl)cc3)CCNCC2)cc1 [Example 78, 4-(4-Chloro-phenyl)-4-[4-(3-methyl-1H-pyrazol-4-yl)-phenyl]-piperidine] | –
9 | < 1000 nM | < 1000 nM | CNCC(O)(c1ccc(Cl)cc1)c1ccc(-c2cn[nH]c2)cc1 (stereo not drawn) [Example 83, 1-(4-Chloro-phenyl)-2-methylamino-1-[4-(1H-pyrazol-4-yl)-phenyl]-ethanol] | –
10 | < 1000 nM | < 1000 nM | CCNCC(c1ccc(Cl)cc1)c1ccc(-c2cn[nH]c2)cc1 (stereo not drawn) [Example 43, {2-(4-Chloro-phenyl)-2-[4-(1H-pyrazol-4-yl)-phenyl]-ethyl}-ethyl-amine] | –
11 | < 1000 nM | < 1000 nM | CNCC(C)(c1ccc(Cl)cc1)c1ccc(-c2cn[nH]c2)cc1 (stereo not drawn) [Example 82, {2-(4-Chloro-phenyl)-2-[4-(1H-pyrazol-4-yl)-phenyl]-propyl}-methyl-amine] | –
12 | < 1000 nM | < 5000 nM | CNCC(c1ccc(Oc2ccccc2)cc1)c1ccc(-c2cn[nH]c2)cc1 (stereo not drawn) [Example 45, Methyl-{2-(4-phenoxy-phenyl)-2-[4-(1H-pyrazol-4-yl)-phenyl]-ethyl}-amine] | –
13 | < 1000 nM | < 1000 nM | CNCC(c1ccc(OC)cc1)c1ccc(-c2cn[nH]c2)cc1 (stereo not drawn) [Example 46, {2-(4-Methoxy-phenyl)-2-[4-(1H-pyrazol-4-yl)-phenyl]-ethyl}-methyl-amine] | –
14 | < 1000 nM | – | NCC(c1ccc(Cl)cc1)c1ccc(-c2cn[nH]c2)cc1 (stereo not drawn) [Example 4, 2-(4-Chloro-phenyl)-2-[4-(1H-pyrazol-4-yl)-phenyl]-ethylamine] | –
15 | – | < 5000 nM | NCC(Cc1ccccc1)c1cccc(-c2cn[nH]c2)c1 (stereo not drawn) [Example 6, 3-Phenyl-2-[3-(1H-pyrazol-4-yl)-phenyl]-propylamine] | –
16 | < 1000 nM | < 1000 nM | N#Cc1ccc(C2(c3ccc(-c4cn[nH]c4)cc3)CCNCC2)cc1 [Example 81, 4-{4-[4-(1H-Pyrazol-4-yl)-phenyl]-piperidin-4-yl}-benzonitrile] | –
17 | – | < 5000 nM | c1ccc(C(c2ccc(-c3cn[nH]c3)cc2)N2CCNCC2)cc1 (stereo not drawn) [Example 64] | –
18 | – | < 1000 nM | CNCCC(c1ccc(Cl)cc1)c1ccc(-c2cn[nH]c2)cc1 (stereo not drawn) [Example 8, {3-(4-Chloro-phenyl)-3-[4-(1H-pyrazol-4-yl)-phenyl]-propyl}-methyl-amine] | –
19 | – | < 5000 nM | NC(=O)C(c1ccc(Cl)cc1)c1ccc(-c2cn[nH]c2)cc1 (stereo not drawn) [Example 32, 2-(4-Chloro-phenyl)-2-[4-(1H-pyrazol-4-yl)-phenyl]-acetamide] | –
20 | < 1000 nM | < 1000 nM | CNCCC(c1ccc(F)cc1)c1ccc(-c2cn[nH]c2)cc1 (stereo not drawn) [Example 54, {3-(4-Fluoro-phenyl)-3-[4-(1H-pyrazol-4-yl)-phenyl]-propyl}-methyl-amine] | –
21 | – | < 1000 nM | Clc1ccc(C(CCN2CCC2)c2ccc(-c3cn[nH]c3)cc2)cc1 (stereo not drawn) [Example 51, 4-{4-[3-Azetidin-1-yl-1-(4-chloro-phenyl)-propyl]-phenyl}-1H-pyrazole] | –
22 | < 1000 nM | < 1000 nM | CNCCC(c1ccc(-c2cn[nH]c2)cc1)c1ccc2ccccc2c1 (stereo not drawn) [Example 52, Methyl-{3-naphthalen-2-yl-3-[4-(1H-pyrazol-4-yl)-phenyl]-propyl}-amine] | –
23 | – | < 5000 nM | Cc1n[nH]c(C)c1-c1ccc(C2(c3ccccc3)CCNCC2)cc1 [Example 18, 4-[4-(3,5-Dimethyl-1H-pyrazol-4-yl)-phenyl]-4-phenyl-piperidine] | –

The remaining lines, values behind:

Row | Molecule | IC50 (PKA catalytic domain; [7]) | IC50 [1, 8] | other results
24 | NCC(c1ccccc1)c1ccc(-c2cn[nH]c2)cc1 (stereo not drawn) [Example 1, 2-Phenyl-2-[4-(1H-pyrazol-4-yl)-phenyl]-ethylamine] | – | – | IC50 (PKA catalytic domain): < 1000 nM; IC50 [1]: < 1000 nM
25 | Clc1ccc(C2(c3ccc(-c4cn[nH]c4)cc3)CCNCC2)cc1Cl [Example 85, 4-(3,4-Dichloro-phenyl)-4-[4-(1H-pyrazol-4-yl)-phenyl]-piperidine] | < 1000 nM | < 1000 nM | –
26 | OCCNCC(c1ccc(Cl)cc1)c1ccc(-c2cn[nH]c2)cc1 (stereo not drawn) [Example 73, 2-{2-(4-Chloro-phenyl)-2-[4-(1H-pyrazol-4-yl)-phenyl]-ethylamino}-ethanol] | < 1000 nM | < 1000 nM | –
27 | CCOC(=O)c1ccc2[nH]c3c(OC)c4[nH]c5ccc(C(=O)OCC)cc5c4cc3c2c1 [SR-13668] | – | – | adverse effects in mice [2]: no adverse effects
28 | NCCOC(c1ccc(Cl)cc1)c1ccc(-c2cn[nH]c2)cc1 (stereo not drawn) [Example 49, 2-{(4-Chloro-phenyl)-[4-(1H-pyrazol-4-yl)-phenyl]-methoxy}-ethylamine] | < 1000 nM | < 1000 nM | –
29 | calicheamicin | – | – | potency relative to adriamycin [3]: over 1,000 times
30 | Clc1ccc(C(Cn2ccnc2)c2ccc(-c3cn[nH]c3)cc2)cc1 (stereo not drawn) [Example 44, 4-{4-[1-(4-Chloro-phenyl)-2-imidazol-1-yl-ethyl]-phenyl}-1H-pyrazole] | < 1000 nM | < 1000 nM | –
31 | CC1=C(/C=C/C(C)=C/C=C/C(C)=C/C(=O)O)C(C)(C)CCC1 [Tretinoin, all-trans retinoic acid] | – | – | remissions in APL patients [4]: 64-100%
32 | Clc1ccc(C2(c3ccc(-c4cn[nH]c4)cc3)CNCCO2)cc1 (stereo not drawn) [Example 79, 2-(4-Chloro-phenyl)-2-[4-(1H-pyrazol-4-yl)-phenyl]-morpholine] | – | – | IC50 (PKA catalytic domain): < 1000 nM; IC50 [1]: < 1000 nM
33 | C/C1=C/C[C@@H](/C(C)=C/c2csc(C)n2)OC(=O)C[C@H](O)C(C)(C)C(=O)[C@H](C)[C@@H](O)[C@@H](C)CCC1 [desoxyepothilone B] | – | – | IC50 [5]: 17 nM
34 | Cc1n[nH]c(C)c1-c1cccc(CC(N)c2ccccc2)c1 (stereo not drawn) [Example 5, 2-[3-(3,5-Dimethyl-1H-pyrazol-4-yl)-phenyl]-1-phenyl-ethylamine] | < 15000 nM | < 5000 nM | –
35 | CNCC(Oc1ccccc1)c1ccc(-c2cn[nH]c2)cc1 (stereo not drawn) [Example 48, Methyl-{2-phenoxy-2-[4-(1H-pyrazol-4-yl)-phenyl]-ethyl}-amine] | < 1000 nM | < 5000 nM | –
36 | CNCCC(Oc1cccc(Cl)c1)c1ccc(-c2cn[nH]c2)cc1 (stereo not drawn) [Example 59, {3-(3-Chloro-phenoxy)-3-[4-(1H-pyrazol-4-yl)-phenyl]-propyl}-methyl-amine] | < 1000 nM | < 1000 nM | –
37 | O=S(=O)(NCCNCC=C(c1ccccc1)c1ccccc1)c1cccc2cnccc12 [NL-71-101] | – | – | IC50 (PKC): 104000 nM; apoptosis in OVCAR-3 tumour cells, in which PKB is amplified (OVCAR-3 tumour cells): induced apoptosis; IC50 (PKG): 36000 nM
38 | NCC(O)(c1ccc(Cl)cc1)c1ccc(-c2cn[nH]c2)cc1 (stereo not drawn) [Example 84, 2-Amino-1-(4-chloro-phenyl)-1-[4-(1H-pyrazol-4-yl)-phenyl]-ethanol] | < 1000 nM | < 1000 nM | –
39 | CCCCCCCCCCCCCCCCCCOP(=O)([O-])OC1CC[N+](C)(C)CC1 [KRX-0401, Perifosine] | – | – | half-life [6]: ~100 h
40 | COc1ccc(C2(c3ccc(-c4cn[nH]c4)cc3)CCNCC2)cc1 [Example 15, 4-(4-Methoxy-phenyl)-4-[4-(1H-pyrazol-4-yl)-phenyl]-piperidine] | – | < 1000 nM | –
41 | NC(=O)CC(c1ccc(Cl)cc1)c1ccc(-c2cn[nH]c2)cc1 (stereo not drawn) [Example 11, 3-(4-Chloro-phenyl)-3-[4-(1H-pyrazol-4-yl)-phenyl]-propionamide] | – | < 5000 nM | –
